# Experimental data reported in patent publication US20230165872A1, “COMBINATION OF BCMA-DIRECTED T CELL THERAPY AND AN IMMUNOMODULATORY COMPOUND” (Juno Therapeutics, Inc., priority 2020, published 2023).
# How the values were obtained:
# [1] = tested on: OPM2 (multiple myeloma) cells; experiment: Murine orthotopic OPM-2 tumor model (sensitive), anti-BCMA CAR T cells plus Compound A; format: in vivo, mouse; details: for tumor burden (BLI) versus anti-BCMA CAR T cells alone: combination with 0.5×10^6 CAR T cells, 1 or 3 mg/kg oral, FIG. 6A; for survival versus anti-BCMA CAR T cells alone: FIG. 6B
# Procedure: Anti-tumor effects of anti-BCMA CAR T cells, alone and in combination with concurrent or delayed administration of Compound A (iberdomide, (S)-3-[4-(4-morpholin ylmethyl-benzyloxy)-1-oxo-1,3-dihydro-isoindol-2-yl]-piperidine-2,6-dione), were assessed in disseminated tumor models. The combinatorial effects were assessed in both tumor models sensitive to and resistant to the immunomodulatory compound. The anti-BCMA CAR T cells used in the study were produced as described in Example 1.
# The effects of anti-BCMA CAR-T cells in combination with Compound A was assessed in a murine orthotopic tumor model using OPM-2 cells, which is an tumor model sensitive to the immunomodulatory compound. Mice (NOD.Cg-Prkdc^scidIL-2rg^tm1Wj1/SzJ mice (NSG; Jackson Labs)) were injected intravenously (i.v.) with 2×10^6 OPM2 (multiple myeloma) cells transfected with firefly luciferase (OPM2-ffluc). Tumor engraftment was allowed to occur for 13 days prior to staging (14 days before CAR-T cell administration) and verified using bioluminescence imaging.
# In one study, mice were administered Compound A (1 mg/kg or 3 mg/kg) via oral administration once a day starting from the day before administration of 0.5×10^6 anti-BCMA CAR T cells, and administration of Compound A was continued once a day until 32 days post-CAR T cell administration (concurrent dosing). In another study, mice were administered 0.5×10^6 anti-BCMA CAR T cells, and then Compound A (1 mg/kg or 3 mg/kg) was administered via oral administration once a day starting 12 days after anti-CAR T cell administration, which was after the peak of CAR-expressing T cell expansion, and administration was continued for 21 days until 32 days post-CAR T cell administration (delayed dosing).
# For bioluminescence imaging (BLI), mice received intraperitoneal (i.p.) injections of luciferin substrate (CaliperLife Sciences, Hopkinton, Mass.) resuspended in PBS (15 μg/g body weight). The average radiance (p/s/cm^2/sr) was determined. Survival of mice treated as described above were assessed and compared over time post-infusion of CAR-expressing T cells. Survival curves were generated using the Kaplan-Meier method (GraphPad Prism 7.0, GraphPad Software, La Jolla).
# The numbers of CD3+ CAR T cells were determined in the blood at day 6 and day 14 by flow cytometry using antibodies directed against CD3 and the surrogate marker on the CAR-expressing cells.
# [2] = molecular target: CRBN (Homo sapiens, UniProt Q96SW2); details: compared with lenalidomide and pomalidomide; cited from earlier work
# Chain of CRBN (Q96SW2 whole entry, species assumed): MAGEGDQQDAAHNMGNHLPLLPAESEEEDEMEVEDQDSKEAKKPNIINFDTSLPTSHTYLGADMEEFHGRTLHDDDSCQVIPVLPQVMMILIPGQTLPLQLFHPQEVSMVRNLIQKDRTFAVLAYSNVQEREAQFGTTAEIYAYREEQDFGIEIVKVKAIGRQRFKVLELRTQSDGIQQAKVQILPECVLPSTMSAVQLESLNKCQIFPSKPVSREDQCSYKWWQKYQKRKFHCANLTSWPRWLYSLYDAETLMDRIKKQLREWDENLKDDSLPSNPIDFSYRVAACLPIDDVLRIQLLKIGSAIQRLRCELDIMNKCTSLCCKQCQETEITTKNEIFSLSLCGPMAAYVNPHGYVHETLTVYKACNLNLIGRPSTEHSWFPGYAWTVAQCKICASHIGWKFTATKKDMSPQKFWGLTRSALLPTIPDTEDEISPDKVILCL
smiles,measurement,setting,value
"O=C1CC[C@H](N2Cc3c(OCc4ccc(CN5CCOCC5)cc4)cccc3C2=O)C(=O)N1 [Compound A, (S)-3-[4-(4-morpholin-4-ylmethyl-benzyloxy)-1-oxo-1,3-dihydro-isoindol-2-yl]-piperidine-2,6-dione]",single agent antitumor activity,"[1]; Compound A alone, 1 or 3 mg/kg oral once a day",some single agent antitumor activity
same,tumor burden (BLI) versus anti-BCMA CAR T cells alone,[1]; concurrent dosing,reduce tumor burden
same,tumor burden (BLI) versus anti-BCMA CAR T cells alone,[1]; delayed dosing from day 12,reduce tumor burden
same,survival versus anti-BCMA CAR T cells alone,"[1]; combination, concurrent dosing",improve survival
same,numbers of CD3+ CAR+ T cells in the blood,"[1]; combination, concurrent regimen, day 6 and day 14, FIG. 6C",trend towards increased numbers
same,survival versus anti-BCMA CAR T cells alone,"[1]; combination, delayed dosing",improve survival
same,binding to CRBN,[2],binds more potently
